{"source": "patent US9045474B2", "about": "“Compounds and compositions for mitigating tissue damage and lethality” (The Regents of the University of California, priority 2010, dated 2015)", "key": {"[1]": {"test_system": "RS112 cells", "assay": "DEL plating assay for mitigation of radiation damage (treatment after 2000Gy)", "assay_type": "cell-based, Saccharomyces cerevisiae", "procedure": "The mitigation protocol is based on the same DEL assay principle of recombination of the disrupted HIS3 gene that renders the cells capable of synthesizing its own histidine following radiation exposure. To establish mitigation properties of the compounds in question, the classical DEL protocol is modified as follows: first the RS112 cells are irradiated with 2000Gy and then the treatments are administered at 0 min, 10 min, 20 min, 30 min, and 60 min, incubated for 2 hrs, and plated on +13 and −His agar plates. The efficacy of the compounds is scored the same way as in the classical DEL protocol. Yel1 and Yel2 analogues that are efficacious in the HTS and classical DEL assay are analyzed for mitigation activity using this modified DEL protocol.\nSix confirmed hits were also tested for radioprotection with the compounds being presented to irradiated cells at different time points following irradiation exposure. The DEL Plating Assay was used with a radiation sensitive Saccharomyces cerevisiae RS112 strain.\nThe general DEL Assay is described above. In this example, DEL assay is a genetic construct in the Saccharomyces cerevisiae RS112 strain where a plasmid with an internal fragment of the HIS3 gene has been integrated at the HIS3 locus, yielding an integrative disruption of the HIS3 gene. […] The construct reverts to HIS3+ by recombination between the two his3 deletion alleles which is, in 99% of the cases, associated with the deletion of the entire 6 kilobasepairs of DNA comprising the integrated plasmid. DEL events are inducible with a variety of DNA-assaulting agents: radiation, smoking, UV exposure, 92% of the known carcinogens, etc.\nRS112 cells irradiated with 2000Gy show an induction of the deletion frequencies (DEL events) and roughly a 90% killing."}, "[2]": {"test_system": "yeast DEL tester strain RS112", "assay": "DEL assay, UV radiation-induced damage", "assay_type": "cell-based, Saccharomyces cerevisiae", "procedure": "DEL tester strain was irradiated with 4000 J/m^2 in the ultraviolet range and treated with Yel001 or Yel002 at 60 minutes at the concentration of 15 uM."}, "[3]": {"test_system": "primary keratinocytes", "assay": "Proliferation of primary keratinocytes after 5Gy irradiation", "assay_type": "cell-based, human", "details": "5 uM, cultured 11 days", "procedure": "After the IR the cells were treated with Yel002 and cultured for 11 days."}, "[4]": {"test_system": "C3H mice", "assay": "Mitigation of radiation-induced lethality in C3H mice (8Gy, LD100/30)", "description": "Radiomitigation studies were conduced by pre-treating C3H mice with the compounds of interest at as concentration of 75 mg/kg and at 24 hrs and 1 hr before an 8 Gy exposure. On a 5×24 mitigation treatment protocol mice were first lethally irradiated with 8 Gy and 24 hrs later received the first subcutaneous injection with the compound suspension with subsequent injections at 48, 72, 96, and 120 hrs. The concentration of the compound in the suspension was 75 mg/kg carrier with either 1N saline or phosphate buffer solution (PBS).\nC3H mice in the mitigation experiment were irradiated with 8Gy and then injected with 75 mg/kg 1 hr post exposure and then again 25 hrs post exposure."}}, "note": "“And” between values parts separate entries of the source, which are not always exact repeats. Identical values can stand only once. “Also recorded” adds a separate entry of the source."}
{"smiles": "COc1ccc2cc(-c3nc4ccc(C)cn4c3NCc3ccco3)c(=O)[nH]c2c1", "note": "[Yel002]", "values": [{"measurement": "reduction of DEL events (gene reversion frequency)", "setting": "[1]; compound added 0-60 min after 2000Gy, p<0.05", "result": "decreased DEL frequencies; also recorded: significant reduction of genetic instability"}, {"measurement": "mitigation of radiation cytotoxicity (survival)", "setting": "[1]; compound added at time points after 2000Gy, significant only at 60 min", "result": "increased survival fractions; also recorded: mitigation of radiation cytotoxicity has been observed"}, {"measurement": "UV genotoxicity and cytotoxicity", "setting": "[2]; 15 uM, P<0.05", "result": "reduces cell death and genotoxicity; also recorded: significantly reduces genotoxicity and cytotoxicity"}, {"measurement": "survival", "setting": "[2]; 4000 J/m^2 UV, 15 uM at 60 minutes, untreated 0.64%", "result": 1.84, "unit": "%"}, {"measurement": "proliferation as compared to controls", "setting": "[3]", "result": "increased proliferation"}, {"measurement": "mitigation efficacy", "setting": "[4]; 8Gy, 75 mg/kg 1.25 protocol", "result": "show activity"}, {"measurement": "mice survived LD100/30 irradiation", "setting": "[4]; 8Gy, 75 mg/kg at 1 hr and 25 hrs post exposure, past 30 days, first small study", "result": 67, "unit": "%"}, {"measurement": "survival at 30 days", "setting": "[4]; 8Gy, 75 mg/kg s.c. at 24, 48, 72, 96, 120 hrs (5×24)", "result": "100% and 75%"}, {"measurement": "survival at 30 days", "setting": "[4]; 8Gy, 75 mg/kg s.c. at 24, 48, 72, 96, 120 hrs (5×24), listed as Yel2", "result": 100, "unit": "%"}, {"measurement": "survival at 30 days", "setting": "[4]; 8Gy, 75 mg/kg s.c. at 1 hr and 25 hrs (1.25 schedule)", "result": 88, "unit": "%"}, {"measurement": "percentage of survivors", "setting": "[4]; 8Gy, both protocols, 252 days post irradiation", "result": 40, "unit": "%"}, {"measurement": "animals still alive beyond 30 day window", "setting": "[4]; 8Gy, both protocols, +292 days", "result": 40, "unit": "%"}, {"measurement": "survival, oral (gavage) administration", "setting": "[4]; 8Gy, oral gavage in saline, 5×24 schedule", "result": 33, "unit": "%"}, {"measurement": "dose modifying factor (DMF)", "setting": "[4]; at LD50/30, 7Gy to 9.1 Gy, 75 mg/kg 5×24 s.c.", "result": 1.15}]}
